Experimental data reported in patent publication US8790883B2, “Methods of identifying NF-κB inhibitors” (priority 2003, dated 2014).
Ends that are not written are not given here. Peptide text beside a SMILES is read from it. * marks the point of attachment. BODIPYFLEthylmaleimide = Cc1cc(C)n2c1C=C1C=CC(CCC(=O)NCCN3C(=O)CC(*)C3=O)=[N+]1[B-]2(F)F; BODIPY = not defined here; Cam = NC(=O)C*

Key:
[1] = Cytotoxicity of NLM-DR derived peptides (MTS, FACS, microscope), Table 2
[2] = system: human retinoblastoma cell lines Y79; assay: Cell death assay (MTS) in retinoblastoma cell line Y79; format: cell-based; settings: for Y79 cells died: 5 μM concentration, longer treatment (FIG. 8C); for Induction of Y79 cell death: 3 hours, various concentrations, peptides without BODIPY
Description: Rb cell line Y79 were treated with various concentration of the Ant-CC2 (WT) (filled squares) or Ant-CC2 (Mu) (open squares) (A), or Ant-LZ (WT) (filled circles), or Ant-LZ (Mu) (open circles) (B), or Ant peptide (open triangle) (C) for 3 hours (A, B) or 16 hours (C). Cell survival was then evaluated using the MTS assay as described in “Materials and methods”
The detection of cell death was performed using the MTS assay provided by Promega (CellTiter 96® AQueous one solution cell proliferation assay). Briefly, 0.3×10^6 Y79 cells in 450 μl were treated with 50 μl of the wild type Ant-CC2 and Ant-LZ peptides (0.1 to 20 μM) or their mutants Ant-CC2 (Mu), Ant-LZ (Mu) or the Ant or left untreated in serum-free RPMI medium at 37° C. After an incubation of […], an aliquot of the cell suspension (200 μl, 0.12×10^6 cells), was then transferee in 96-well plates and mixed with the MTS solution (40 μl) containing the MTS compound and the phenazine ethosulfate. Two hours after, the quantity of formazan produced by viable cells was measured using an automated microplate reader (Bio-TeK Instruments, INC) at 490 nm absorbance. Cell survival was observed under microscope and was estimated as a percentage of the value of untreated controls. The background of the reaction was determined by mixing the MTS solution with cell-free RPMI medium. To increase the sensitivity of the cell death assay, the present inventors used peptides devoid of BODIPY-labeling because the absorption spectra of the fluorophor overlaps with that of the formazan product. All experiments were repeated twice and each experiment condition was repeated in duplicate wells in each experiment.

[3] = system: LPS-induced NF-κB activation; assay: NF-κB inhibition assay, first procedure: LPS-induced NF-κB dependent β-galactosidase reporter in 70Z/3-C3 cells; format: cell-based, murine; settings: for LPS-induced NF-κB activation in presence of peptide: 20 μM peptide 2 h, LPS (3 μg/ml) 5 h, 70Z3-C3 cells
Description: The resulting cell line, 70Z3-C3, was incubated for 2 hours in the absence or in the presence of 20 μM of antennapedia peptide (Ant), or BODIPY-labeled antennapedia peptide (BODIPY-Ant), or BODIPY-labeled antennapedia peptide coupled to CC2 (BODIPY-Ant-CC2) or LZ (BODIPY-Ant-LZ) peptides, After peptide internalization, cells were treated for 5 hours with LPS (3 μg/ml, (+) in left panel) or untreated (right panel and (−) in left panel) and the NF-κB activity was measured by β-galactosidase assay. Error bars represent the standard deviation of three separate experiments. (B) Concentration dependence of inhibition of LPS-induced NF-κB activation by BODIPY-Ant-CC2 peptide (left panel) or BODIPY-Ant-LZ peptide (right panel). Cells were treated as in (A) but with different concentration of peptide as indicated. The potential of each peptide to inhibit LPS-induced NF-κB activation was measured by determining the IC50 value that correspond to 50% inhibition of LPS-induced NF-κB activation as compared to the control (no peptide) (C). (D) Effect of the N-fusion sequence of antennapedia on the inhibition of NF-κB activation. Control (no peptide) or CC2, or LZ peptides, with (BODIPY-ANT-CC2, BODIPY-ANT-LZ) or without the antennapedia sequence at the N-terminus (CC2, LZ) were incubated for 2 hours with 70Z3-C3 cells followed with (+) or without (−) the LPS-treatment for 3 hours. NF-κB activity was then measured by β-galactosidase assay.
In a first procedure 2.2×10^5 70Z/3-C3 cells in 220 μl of RPMI 1640 supplemented with 10% fetal calf serum (FCS) and 50 μM β-mercaptoethanol were placed in a 96-well plate and incubated with various concentrations of peptide (0 to 20 μM) at 37° C. in 5% CO2 incubator. After two hours an equal portion (100 μl) of each cell sample transferred in two wells containing each 10^5 cells. One aliquot of cells was then treated for 5 hours with lipopolysaccharides from Salmonella abortus (Sigma) at 0.5 μg/ml final concentration, and the other one left-treated. After 5 hours, cells were centrifuged at 400×g for 5 min at room temperature and the cell pellets were washed three times with cold PBS (250 μl) by centrifugation. Cells were then lysed in the lysis buffer (25 mM tris-phosphate buffer at pH 7.8 containing 8 mM magnesium chloride, 1 mM dithioerythreitol, 1% Triton X-100, 15% glycerol and a protease inhibitor mixture (Roche)), and samples were centrifuged at 4° C. for 20 min to clarify the lysate. The supernatant was then kept on ice, and 30 μl was then assayed to measure the β-galactosidase activity with a plate luminometer (Berthold) using the GALACTON-STAR™ as chemiluminescent substrate (BD Biosciences Clontech, Bronstein et al., 1989). Background of reaction was measured by mixing for 1 hour 30 μl of lysis buffer with the reaction buffer (196 μl) and the GALACTON-STAR™ substrate (4 μl) provided by BD Biosciences. In a second procedure and a more stringent assay, 70Z/3-C3 cells (2.2×105 in 220 μl medium) were centrifuged at 400×g at room temperature after peptide internalization for 2 hours, and cell pellets were washed three times with 200 μl of PBS by centrifugation. Cells were then diluted three times with complete medium, and allowed to grow for at least 24 hours. The following steps are identical to the first procedure.
To analyze the inhibition potential of LPS-induced NF-κB activation by cell permeable BODIPY-Ant-CC2 and BODIPY-Ant-LZ peptides, the present inventors stably transfected the murine pre-B 70Z3 cell line with p12XlacZ-kB, which bears the β-galactosidase reporter gene under the control of the NF-κB transcription factor.

[4] = system: LPS-induced NF-κB activation; assay: More stringent NF-κB inhibition assay, second procedure: peptide internalization, washing, 24 h growth, then LPS; format: cell-based, murine; settings: 10 μM peptide
Text: Left panels show a helical wheel diagram of CC2 (A) and LZ (B) peptides. The view is from the top the molecule. The (a) through (g) positions, which are an essential feature of coiled coil sequence (Vinson, 2002, Mol. Cell. Biol.) represent sequential positions in each peptide sequence. The first (a) and fourth (d) positions that are generally occupied by hydrophobic amino acids constitute the hydrophobic core for parallel as well as antiparallel-coiled coils. Mutations that were introduced in (a) positions of the CC2 variant (BODIPY-Ant-CC2 (Mu); shown as residues 6-40 of SEQ ID NO:3, with glycine mutations corresponding to residues 6-40 of SEQ ID NO:5) or in (d) positions of the LZ variant (BODIPY-Ant-(Mu) are shown. In the right panels, 70Z3-C3 cells were incubated for 2 hours in the absence (control) or in the presence of 10 μM of cell permeable wild type (BODIPY-Ant-CC2 (WT)) or mutant (BODIPY-Ant-CC2 (Mu)) CC2 peptides (A) or wild type (BODIPY-Ant-LZ (WT)) or mutant (BODIPY-Ant-(Mu)) LZ peptides (B). The cells were then extensively washed to remove the excess peptide which had not been internalized and the cells were then diluted three times and allowed to grow for 24 hours before treatment for 5 hours with (+) or without LPS (−). NF-κB activity was measured using the β-galactosidase assay. Error bars represent the standard deviation of two independent experiments.
(A) Sequence alignment of the NEMO-derived LZ (residues 301-336 of SEQ ID NO: 12) and the GCN4 peptides (residues 23-55 of SEQ ID NO:8). Both coiled-coil motifs were aligned using clustalX. Identical and similar amino acid residues (shaded) are indicated by (!) or (*), respectively. (B) Overview and helical wheel diagram of the GCN4 coiled-coil (top view). The amino-acid sequence of GCN4 is shown with its corresponding [a-g] positions and residues that differ from the corresponding NEMO-derived LZ sequence are boxed according to their degree of conservation. Identical (open square) and similar residues (open triangle) are indicated. […] NF-κB activity was measured using the b-galactosidase assay. […]

[5] = Analytical gel filtration, oligomeric states of peptides; format: physicochemical; settings: 10 μM, Superdex 75, buffer with 0.1 mM DDM
Description: All peptides were loaded at a 10 μM concentration on a superdex 75 HR10/30 column equilibrated in a buffer containing 0.1 mM DDM to improve recovery (see “Materials and methods”). Chromatographic profiles of the CC2 mutant (dashed line) and the CC2 wild type (solid line) fused (BODIPY-Ant-CC2 (WT), BODIPY-Ant-CC2 (Mu), or not fused to the antennapedia sequence (CC2 (WT), CC2 (Mu)) are shown in left panels, and elution profiles of the LZ mutant (dashed line) and the wild type (solid line) fused (BODIPY-Ant-LZ (WT), BODIPY-Ant-LZ (Mu), or not fused to the antennapedia sequence (LZ (WT), LZ (Mu)) are represented in right panels. Elution volumes of globular protein markers are indicated by arrows: Oval, ovalbumin (43 kDa); Chym, chymotrypsinogene A (25 kDa); Ribo, Ribonuclease (13.4 kDa) and Apro, aprotinin (6.5 kDa).
The oligomeric states of peptides were determined by filtration as described in Traincard et al., 2003. In brief, 500 μl samples were loaded on a SUPERDEX™ 75 HR 10/30 column equilibrated in 50 mM Tris-HCl pH 8.0 containing 200 mM NaCl and 0.1 mM DDM, at a constant flow rate of 0.4 ml/min. The presence of the DDM detergent was added in the equilibrium buffer to minimize the adsorption in the column and to increase the peptide recovery. The column was calibrated in the same equilibrium buffer with blue dextran 2000 (void volume), dithioerythritol (total volume), bovine serum albumin (67 kDa, Rs=35.2 Å), ovalbumine (43 kDa, Rs=27.5 Å), chymotrypsinogen A (25 kDa, Rs=21.1 Å), ribonuclease A (13.7 kDa, Rs=16.4 Å), cytochrome C (12.4 kDa, Rs=17.7 Å) and aprotinin (6.5 KDa, Rs=13.5 Å).

CC[C@H](C)[C@H](NC(=O)[C@H](CC(=O)O)NC(=O)[C@H](C)NC(=O)[C@H](CCC(N)=O)NC(=O)[C@H](C)NC(=O)[C@H](CCCCN)NC(=O)[C@H](CC(C)C)NC(=O)[C@H](CCCNC(=N)N)NC(=O)[C@H](CCCNC(=N)N)NC(=O)[C@H](CCCNC(=N)N)NC(=O)[C@H](CCC(N)=O)NC(=O)[C@H](CCCNC(=N)N)NC(=O)[C@H](CCCNC(=N)N)NC(=O)[C@H](CCCCN)NC(=O)[C@H](CCCCN)NC(=O)[C@H](CCCNC(=N)N)NC(=O)CNC(=O)[C@H](Cc1ccc(O)cc1)NC(=O)[C@H](CSC1CC(=O)N(CCNC(=O)CCC2=[N+]3C(=Cc4c(C)cc(C)n4[B-]3(F)F)C=C2)C1=O)NC(C)=O)C(=O)N[C@@H](Cc1ccc(O)cc1)C(=O)N[C@@H](CCCCN)C(=O)N[C@@H](C)C(=O)N[C@@H](CCCNC(=N)N)C(=O)N[C@@H](Cc1ccccc1)C(=O)N[C@@H](CCC(N)=O)C(=O)N[C@@H](C)C(=O)N[C@@H](CCC(=O)O)C(=O)N[C@@H](CCCNC(=N)N)C(=O)N[C@@H](Cc1c[nH]cn1)C(=O)N[C@@H](C)C(=O)N[C@@H](CCCNC(=N)N)C(=O)N[C@@H](CCC(=O)O)C(=O)N[C@@H](CCCCN)C(N)=O (stereo partly shown) [BODIPY-TAT-NLM-DR] (Ac-C(BODIPYFLEthylmaleimide)YGRKKRRQRRRLKAQADIYKARFQAERHAREK-NH2)
Cytotoxicity Cell morphology FACS [1]: no | Cytotoxicity Cell morphology Microscope [1]: no

Ac-C(Cam)RQIKIWFQNRRMKWKKLKAQADIYKADFQAERHAREKLVEKKEYLQEQLEQLQREFNKL-NH2 [Ant-LZ]
Y79 cells died [2]: 80%

Ac-C(Cam)RQIKIWFQNRRMKWKKSKGMQLEDLRQQLQQAEEALVAKQELIDKLKEEAEQHKIV-NH2 [Ant-CC2]
Y79 cells died [2]: 55%

Ant-CC2 (Mu): mutant Ant-CC2 devoid of BODIPY-labeling (SEQ ID NO: 4) (Ac-CRQIKIWFQNRRMKWKKSKGMQLEDLRQQGQQAEEAGVAKQELGDKLKEEAEQHKIV-NH2)
Induction of Y79 cell death [2]: did not induce concentration cell death

Ant-LZ (Mu): mutant Ant-LZ devoid of BODIPY-labeling (SEQ ID NO: 8) (Ac-CRQIKIWFQNRRMKWKKLKAQADIYKADFQAERHAREKLVEKKEYSQEQLEQSQREFNKL-NH2)
Induction of Y79 cell death [2]: not

Ant: antennapedia/penetratin internalization peptide without BODIPY label (SEQ ID NO: 1) (CRQIKIWFQNRRMKWKK) [reference compound]
Effect on Y79 cell survival, longer treatment ([2]; 16 hours (FIG. 8C)): did not affect cell survival | LPS-induced NF-κB activation in presence of peptide [3]: same level of NF-κB activation as the control

B-CRQIKIWFQNRRMKWKK ({BODIPY}-CRQIKIWFQNRRMKWKK; reading uncertain) [BODIPY-Ant, reference compound]
LPS-induced NF-κB activation in presence of peptide [3]: same level of NF-κB activation as the control

B-CRQIKIWFQNRRMKWKKLKAQADIYKADFQAERHAREKLVEKKEYLQEQLEQLQREFNKL (C(BODIPY)RQIKIWFQNRRMKWKKLKAQADIYKADFQAERHAREKLVEKKEYLQEQLEQLQREFNKL-NH2; not fully specified (N-terminus); reading uncertain) [BODIPY-Ant-LZ (WT)]
LPS-induced NF-κB activation in presence of peptide [3]: decreased significantly | LPS-induced NF-κB activation in presence of peptide ([3]; listed as “Leucine zipper” peptide): completely eliminates cell response

B-CRQIKIWFQNRRMKWKKLKAQADIYKADFQAERHAREKLVEKKEYSQEQLEQSQREFNKL (C(BODIPY)RQIKIWFQNRRMKWKKLKAQADIYKADFQAERHAREKLVEKKEYSQEQLEQSQREFNKL-NH2; not fully specified (N-terminus); printed as B-CRQIKIWFQNRRMKWKKLKAQADIYKADFQAERHAREKLVEKKEYSQEQLEQSQREFNKL; reading uncertain) [BODIPY-Ant-LZ (Mu)]
Inhibition of NF-κB activation compared to the control [4]: 15%

LKAQADIYKADFQAERHAREKLVEKKEYLQEQLEQLQREFNKL [LZ (WT)]
Oligomeric state by gel filtration [5]: dimer | LPS-induced NF-κB activation, peptides not fused to antennapedia ([3]; peptide 2 h, LPS 3 h, 70Z3-C3 cells (FIG. 3D)): same level of activation as the control

LKAQADIYKADFQAERHAREKLVEKKEYSQEQLEQSQREFNKL [LZ (Mu)]
Oligomeric state by gel filtration [5]: still detected dimerization

SKGMQLEDLRQQGQQAEEAGVAKQELGDKLKEEAEQHKIV [CC2 (Mu)]
Oligomeric state by gel filtration [5]: lost its ability to oligomerize
